Assay results as given in PMC10940605, “Design, synthesis and in vitro anticancer activity of some new lomefloxacin derivatives” (Scientific Reports, 2024).

Experiments:
SK-OV-3 = assay: NCI-60 SRB screen; type: cell-based; conditions: Homo sapiens; SK-OV-3, 10^–5 Molar; read-out: Percent growth inhibition
NCI-H322M = assay: NCI-60 SRB screen; type: cell-based; conditions: Homo sapiens, 10^–5 Molar, read-out: Percent growth inhibition
Summary of the method: (§1)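 Single-dose screen at 10^−5 M; cells grown in RPMI 1640 with 2 mM L-glutamine and FBS for 24 h, then exposed to compound for 48 h at 37 °C, 5% CO2. TCA-fixed, SRB-stained, absorbance read at […]; percentage growth inhibition calculated against time-zero and control wells.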

A498 = assay: NCI-60 SRB screen; type: cell-based; conditions: Homo sapiens; A498, 10^–5 Molar; read-out: Percent growth inhibition
Summary of the method: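 Compound added at 10^−5 M final, 48 h at 37 °C. Fixed with cold TCA, stained with 0.4% SRB, read at […].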

leukemia SR = assay: NCI-60 SRB screen; type: cell-based; conditions: Homo sapiens; for inhibition at 10 µM: SR, 10^–5 Molar, read-out: Percent growth inhibition
Summary of the method: as §1

MOLT-4 = assay: NCI-60 SRB screen; type: cell-based; conditions: Homo sapiens; MOLT-4, 10^–5 Molar; read-out: Percent growth inhibition
TK-10 = assay: NCI-60 SRB screen; type: cell-based; conditions: Homo sapiens; TK-10, 10^–5 Molar; read-out: Percent growth inhibition
DU-145 = assay: NCI-60 SRB screen; type: cell-based; conditions: Homo sapiens; DU-145, 10^–5 Molar; read-out: Percent growth inhibition
COLO 205 = assay: NCI-60 SRB screen; type: cell-based; conditions: Homo sapiens, 48 h; COLO 205, 10^–5 Molar; read-out: Percent growth inhibition
UACC-257 = assay: NCI-60 SRB screen; type: cell-based; conditions: Homo sapiens; UACC-257, 10^–5 Molar; read-out: Percent growth inhibition
RPMI-8226 = assay: NCI-60 SRB screen; type: cell-based; conditions: Homo sapiens; RPMI-8226, 10^–5 Molar; read-out: Percent growth inhibition
HL-60(TB) = assay: NCI-60 SRB screen; type: cell-based; conditions: Homo sapiens, 10^–5 Molar, read-out: Percent growth inhibition
HT29 = assay: NCI-60 SRB screen; type: cell-based; conditions: Homo sapiens, HT-29; HT29, 10^–5 Molar; read-out: Percent growth inhibition
topoisomerase IIα = target: T1, topoisomerase IIα (Homo sapiens, UniProt P11388); assay: Topoisomerase ELISA kit inhibitory assay; type: biochemical; conditions: four concentrations
T1 construct: purchased MBS2885049
T1 sequence (P11388 whole entry): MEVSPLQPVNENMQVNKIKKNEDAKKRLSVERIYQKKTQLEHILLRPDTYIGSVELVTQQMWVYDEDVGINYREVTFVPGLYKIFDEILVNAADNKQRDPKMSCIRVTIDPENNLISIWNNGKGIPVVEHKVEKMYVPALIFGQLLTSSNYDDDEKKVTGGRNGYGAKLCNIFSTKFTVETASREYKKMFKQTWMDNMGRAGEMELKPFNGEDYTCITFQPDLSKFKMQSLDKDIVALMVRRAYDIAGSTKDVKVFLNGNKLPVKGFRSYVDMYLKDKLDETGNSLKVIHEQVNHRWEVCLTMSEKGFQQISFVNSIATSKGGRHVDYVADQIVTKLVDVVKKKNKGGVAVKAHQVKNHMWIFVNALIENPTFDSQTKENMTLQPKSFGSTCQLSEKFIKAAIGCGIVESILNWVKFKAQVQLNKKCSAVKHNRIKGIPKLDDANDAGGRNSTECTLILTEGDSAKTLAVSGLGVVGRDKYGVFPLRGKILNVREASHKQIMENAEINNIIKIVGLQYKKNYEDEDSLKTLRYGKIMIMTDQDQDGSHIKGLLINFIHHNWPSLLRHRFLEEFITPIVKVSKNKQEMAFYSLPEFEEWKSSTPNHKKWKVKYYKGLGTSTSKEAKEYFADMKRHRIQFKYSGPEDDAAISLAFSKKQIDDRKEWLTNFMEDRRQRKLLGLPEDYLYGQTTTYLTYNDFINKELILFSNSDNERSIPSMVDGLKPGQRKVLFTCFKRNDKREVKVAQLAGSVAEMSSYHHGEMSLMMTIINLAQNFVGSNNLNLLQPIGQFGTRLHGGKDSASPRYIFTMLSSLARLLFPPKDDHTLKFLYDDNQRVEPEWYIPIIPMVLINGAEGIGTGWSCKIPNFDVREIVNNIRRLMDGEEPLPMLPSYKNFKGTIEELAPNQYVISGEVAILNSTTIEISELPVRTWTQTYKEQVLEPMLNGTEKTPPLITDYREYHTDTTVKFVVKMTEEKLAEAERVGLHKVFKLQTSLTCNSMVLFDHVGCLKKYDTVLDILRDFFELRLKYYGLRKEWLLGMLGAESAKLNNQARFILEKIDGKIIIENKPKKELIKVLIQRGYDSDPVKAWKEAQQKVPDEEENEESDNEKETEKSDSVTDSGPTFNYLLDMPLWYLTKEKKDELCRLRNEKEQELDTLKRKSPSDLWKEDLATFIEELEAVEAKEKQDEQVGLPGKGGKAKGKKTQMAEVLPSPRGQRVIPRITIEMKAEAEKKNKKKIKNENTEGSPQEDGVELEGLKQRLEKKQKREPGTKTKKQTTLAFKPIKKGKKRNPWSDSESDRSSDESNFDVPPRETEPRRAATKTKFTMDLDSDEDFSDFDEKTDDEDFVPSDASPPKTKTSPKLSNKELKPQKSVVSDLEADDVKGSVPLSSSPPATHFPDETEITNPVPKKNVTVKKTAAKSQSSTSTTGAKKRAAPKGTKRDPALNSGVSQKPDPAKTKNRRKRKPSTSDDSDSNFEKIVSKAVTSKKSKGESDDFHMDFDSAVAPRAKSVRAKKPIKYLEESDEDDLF
Protocol: Four concentrations were used and IC50 was calculated.
Compound 3a,b,c,e were evaluated for topoisomerase IIα inhibitory activity utilizing the human DNA topoisomerase ELISA kit (MBS2885049) and following the provided procedure: • Standards and the tested compound were dissolved in sample diluent and tenfold serial dilution was achieved. • Biotin-conjugated antibody and avidin conjugated Horseradish Peroxidase (HRP-avidin) were diluted to tenfolds. • 100 µL of each concentration of standard or test compounds were added to each well and incubated at 37 °C for 1 h. • Removal of the liquid in each well was done. • To each well 100 µL of Biotin-conjugated antibody solution was added followed by incubation for 1 h at 37 °C. • The microtiter plate was allowed to aspirate and washed 3 times. • 100 µL of avidin conjugated Horseradish Peroxidase (HRP-avidin) solution was added to each well and incubatation for 1 h at 37 °C was achieved. • The plate was aspirated and washed 5 times. • Addition of 90 µL of 3,3′,5,5′-tetramethylbenzidine (TMB) substrate to each well followed by plate incubated for 30 min at 37 °C and protection from light was done. • 50 µL stop solution was added.

M14 = assay: NCI-60 SRB screen; type: cell-based; conditions: Homo sapiens; M14, 10^–5 Molar; read-out: Percent growth inhibition
Summary of the method: as §1

SK-MEL-2 = assay: NCI-60 SRB screen; type: cell-based; conditions: Homo sapiens; SK-MEL-2, 10^–5 Molar; read-out: Percent growth inhibition
Summary of the method: as §1

leukemia SR cells = assay: Apoptosis, Annexin-V-FITC/PI

Row | Structure (SMILES) | inhibition at 10 µM (SK-OV-3) | melting point | inhibition at 10 µM (NCI-H322M) | inhibition at 10 µM (A498) | inhibition at 10 µM (leukemia SR) | inhibition at 10 µM (MOLT-4) | inhibition at 10 µM (TK-10) | inhibition at 10 µM (DU-145) | inhibition at 10 µM (COLO 205) | inhibition at 10 µM (RPMI-8226) | inhibition at 10 µM (HL-60(TB)) | inhibition at 10 µM (HT29) | IC50 (topoisomerase IIα) | inhibition at 10 µM (M14) | inhibition at 10 µM (SK-MEL-2) | also measured
1 | CCn1cc(C(=O)O)c(=O)c2cc(F)c(N3CCN(C(=O)c4ccc(Br)cc4)C(C)C3)c(F)c21 (stereo not drawn) [Compound 7b, 7-(4-(4-Bromobenzoyl)-3-methylpiperazin-1-yl)-1-ethyl-6,8-difluoro-4-oxo-1,4-dihydroquinoline-3-carboxylic acid] | 1.83% | 271 to 273 °C | 5.64% | 13.8% | 1.41% | – | – | – | – | – | – | – | – | – | – | –
2 | CCn1cc(C(=O)NN=Cc2ccccc2)c(=O)c2cc(F)c(N3CCNC(C)C3)c(F)c21 (stereo not drawn) [Compound 3a, N'-Benzylidene-1-ethyl-6,8-difluoro-7-(3-methylpiperazin-1-yl)-4-oxo-1,4-dihydroquinoline-3-carbohydrazide] | – | – | 47.5% | 0.4% | 115% | 125% | 17.3% | 188% | 174% | 142% | 81.9% | 192% | 1740 nM | 150% | 6.57% | inhibition at 10 µM (UACC-257): 60.4%
3 | CCn1cc(C(=O)NN=Cc2ccc(Br)cc2)c(=O)c2cc(F)c(N3CCNC(C)C3)c(F)c21 (stereo not drawn) [Compound 3c, N'-(4-Bromobenzylidene)-1-ethyl-6,8-difluoro-7-(3-methylpiperazin-1-yl)-4-oxo-1,4-dihydroquinoline-3-carbohydrazide] | – | – | 14.2% | 1.99% | 95.7% | 78% | 0.41% | 68.6% | 67.9% | 115% | 51.3% | 132% | 1680 nM | 57.3% | 2.32% | –
4 | CCn1cc(C(=O)O)c(=O)c2cc(F)c(N3CCN(CC(=O)Nc4ccc(Cl)cc4)C(C)C3)c(F)c21 (stereo not drawn) [Compound 5b, 7-(4-(2-((4-Chlorophenyl)amino)-2-oxoethyl)-3-methylpiperazin-1-yl)-1-ethyl-6,8-difluoro-4-oxo-1,4-dihydroquinoline-3-carboxylic acid] | 9.6% | 218 to 220 °C | 13.8% | 27.1% | – | 1% | – | – | – | – | – | – | – | 2.06% | – | –
5 | CCn1cc(C(=O)NN=Cc2cccnc2)c(=O)c2cc(F)c(N3CCNC(C)C3)c(F)c21 (stereo not drawn) [Compound 3d, 1-Ethyl-6,8-difluoro-7-(3-methylpiperazin-1-yl)-4-oxo-N'-(pyridin-3-ylmethylene)-1,4-dihydroquinoline-3-carbohydrazide] | 16.2% | 241 to 243 °C | 41.9% | 40.3% | 66.4% | 65.6% | 29% | 57.5% | 46.8% | 13.4% | 30.5% | 56.3% | – | 10.3% | 44.1% | inhibition at 10 µM (UACC-257): 1.56%
6 | CCn1cc(C(=O)O)c(=O)c2cc(F)c(N3CCN(CC(=O)Nc4ccccc4)C(C)C3)c(F)c21 (stereo not drawn) [Compound 5a, 1-Ethyl-6,8-difluoro-7-(3-methyl-4-(2-oxo-2-(phenylamino)ethyl)piperazin-1-yl)-4-oxo-1,4-dihydroquinoline-3-carboxylic acid] | 9.27% | 248 to 250 °C | 14.3% | 26.6% | – | – | – | – | – | – | – | – | – | – | – | –
7 | CCn1cc(C(=O)NN=Cc2cccs2)c(=O)c2cc(F)c(N3CCNC(C)C3)c(F)c21 (stereo not drawn) [Compound 3e, 1-Ethyl-6,8-difluoro-7-(3-methylpiperazin-1-yl)-4-oxo-N'-(thiophen-2-ylmethylene)-1,4-dihydroquinoline-3-carbohydrazide] | 9.74% | – | 15.9% | – | 104% | 24.9% | 16.1% | 51.7% | 142% | 137% | – | 177% | 980 nM | 50.6% | – | late apoptosis elevation vs control (leukemia SR cells): 27.16 folds; Apoptosis %Early (leukemia SR cells; 3e at 1.90 µM, 24 h): 5.27%; Apoptosis %Late (leukemia SR cells; 3e at 1.90 µM, 24 h): 18.20%; Apoptosis %Total (leukemia SR cells; 3e at 1.90 µM, 24 h): 26.19%; Necrosis (leukemia SR cells; 3e at 1.90 µM, 24 h): 2.72%; IC50 (leukemia SR; Leukemia SR cells, concentration used for cell cycle and apoptosis tests): 1900 nM
8 | CCn1cc(C(=O)O)c(=O)c2cc(F)c(N3CCN(C(=O)c4ccc([N+](=O)[O-])cc4)C(C)C3)c(F)c21 (stereo not drawn) [Compound 7d, 1-Ethyl-6,8-difluoro-7-(3-methyl-4-(4-nitrobenzoyl)piperazin-1-yl)-4-oxo-1,4-dihydroquinoline-3-carboxylic acid] | – | 215 to 217 °C | 12.7% | 8.25% | 44.8% | – | – | – | – | – | 24.7% | – | – | – | – | –
9 | CCn1cc(C(=O)O)c(=O)c2cc(F)c(N3CCN(C(=O)c4ccccc4)C(C)C3)c(F)c21 (stereo not drawn) [Compound 7a, 7-(4-Benzoyl-3-methylpiperazin-1-yl)-1-ethyl-6,8-difluoro-4-oxo-1,4-dihydroquinoline-3-carboxylic acid] | – | 290 to 292 °C | 14.4% | 19.1% | – | – | 13% | – | – | – | – | – | – | 9.98% | 0.16% | –
10 | CCn1cc(C(=O)NN=Cc2cccc(F)c2)c(=O)c2cc(F)c(N3CCNC(C)C3)c(F)c21 (stereo not drawn) [Compound 3b, 1-Ethyl-6,8-difluoro-N′-(3-fluorobenzylidene)-7-(3-methylpiperazin-1-yl)-4-oxo-1,4-dihydroquinoline-3-carbohydrazide] | – | – | 16.6% | 0.84% | 129% | 126% | – | 188% | 82.5% | 142% | 34.5% | 187% | 2410 nM | 107% | – | inhibition at 10 µM (UACC-257): 11%
11 | CCn1cc(C(=O)O)c(=O)c2cc(F)c(N3CCN(C(=O)c4ccc(Cl)cc4)C(C)C3)c(F)c21 (stereo not drawn) [Compound 7c, 7-(4-(4-Chlorobenzoyl)-3-methylpiperazin-1-yl)-1-ethyl-6,8-difluoro-4-oxo-1,4-dihydroquinoline-3-carboxylic acid] | 2.14% | 282 to 284 °C | 7.81% | 19.2% | 8.55% | – | – | – | – | – | – | – | – | – | – | –
